The assay deals with diamondback moth, Plutella xylostella. Put plainly: Bioassay on treated cabbage plants (track sprayer, 400 L/Ha) infested with second instar diamondback moth; synergy judged by Colby's equation. The class given is in vivo. The text has this:
The method described in Colby S. R., “Calculating Synergistic and Antagonistic Responses of Herbicide Combinations,” Weeds, 1967, 15, 20-22 was used to determine an existence of synergic effect between the inhibitor of chitin biosynthesis, type 1 compound and the pesticide (I), (II), or any agriculturally acceptable salt thereof in the formulated pesticidal composition. In this method, the percent insect control of the formulated pesticidal composition as observed in the study was compared to the “expected” percent control (E) as calculated by equation (1) (hereinafter “Colby's equation”) below:
[formula] where • X is the percentage of control with the first pesticide at a given rate (p), • Y is the percentage of control with the second pesticide at a given rate (q), and • E is the expected control by the first and second pesticide at a rate of p+q.
Bioassays were performed for different active compounds. Cabbage plants with about two to three new-growth-true leaf stage were treated with different active compounds using a track sprayer application at 400 L/Ha spray volume. Three second instar diamondback moth, Plutella xylostella, were infested onto each leaf disc. The percent control of the pesticidal composition against diamondback moth, Plutella xylostella, was determined as the “Observed” action, and compared to those obtained by using about 0.000625 weight % of compound I, and using about 0.000625 weight % of buprofezin alone. The “Colby's Expected Action” was calculated using Colby's equation as discussed previously.
Bioassays were performed wherein different active compounds were tested against diamondback moth, Plutella xylostella, using the procedure described in example 5A.
Bioassays may be performed for different active compounds against diamondback moth, Plutella xylostella, using the procedure described in example 5A. The percent control may be determined after three days after the treatment.

[1] abbreviates: Example 5A, active used alone, dose rate 0.000625 weight %, diamondback moth on cabbage.

`CC(C)N1C(=O)N(c2ccccc2)CS/C1=N\C(C)(C)C` [Buprofezin, (E,Z)-2-tert-butylimino-3-isopropyl-5-phenyl-1,3,5-thiadiazinan-4-one]: the “% Control Three Days After Treatment” value is on record as 0% under setting [1]; “no control” (Example 5A, active used alone, dose rate 0.000625 weight %, diamondback moth on cabbage, listed as buprofezin); 0% (Example 5B, buprofezin alone, dose rate 0.0025 weight %); “no control” (Example 5B, buprofezin alone, dose rate 0.0025 weight %, listed as buprofezin); 0% (Example 5C, buprofezin alone, dose rate 0.000625 weight %); “no control” (Example 5C, buprofezin alone, dose rate 0.000625 weight %, listed as buprofezin).

As for `CCN(C(=O)CCSCCC(F)(F)F)c1cn(-c2cccnc2)nc1Cl` [Compound I, N-(3-chloro-1-(pyridin-3-yl)-1H-pyrazol-4-yl)-N-ethyl-3-((3,3,3-trifluoropropyl)thio)propanamide], the “% Control Three Days After Treatment” value by setting is: under setting [1], “no control”; (Example 5B, compound I alone, dose rate 0.000625 weight %) 0%; (Example 5B, compound I alone, dose rate 0.000625 weight %, listed as compound I) “no control”; (Example 5C, compound I alone, dose rate 0.0025 weight %) 0%; (Example 5C, compound I alone, dose rate 0.0025 weight %, listed as compound I) “no control”.

The values above are taken from patent US9474276B2, “Synergistic pesticidal compositions and related methods” (Dow AgroSciences LLC, priority 2013, dated 2016).
